These results are taken from ChEMBL document CHEMBL4385643, “Design of a brain-penetrant CDK4/6 inhibitor for glioblastoma” (Bioorg Med Chem Lett, 2019).

Experiment [1] deals with 5'-AMP-activated protein kinase catalytic subunit alpha-1 (Homo sapiens) (UniProt Q13131). The experiment is described as follows: Inhibition of recombinant full length human PRKAA1 expressed in baculovirus expression system at 0.1 uM using CREBtide as substrate 60 mins by Lanthascreen assay relative to control.
Experiment [2] concerns the target Non-receptor tyrosine-protein kinase TYK2 (Homo sapiens) (UniProt P29597). The experiment is described as follows: Inhibition of recombinant human GST-tagged TYK2 catalytic domain (833 to 1187 residues) expressed in baculovirus expression system at 0.1 uM using tyrosine-3 peptide as substrate incubated for 60 mins by Z'-LYTE assay relative to control.
Experiment [3] addresses Activated CDC42 kinase 1 (Homo sapiens) (UniProt Q07912). The experiment is described as follows: Inhibition of tracer 236 binding to recombinant human GST-tagged TNK2 catalytic domain (110 to 476 residues) expressed in baculovirus expression system at 0.1 uM measured after 60 mins by Lanthascreen assay.
The target in experiment [4] is Aurora kinase A (Homo sapiens) (UniProt O14965). The experiment is described as follows: Inhibition of recombinant full length human His-tagged Aurora A expressed in baculovirus expression system at 0.1 uM using serine/threonine-1 peptide as substrate incubated for 60 mins by Z'-LYTE assay relative to control.
Chain of Aurora kinase A (Homo sapiens) (O14965 whole entry): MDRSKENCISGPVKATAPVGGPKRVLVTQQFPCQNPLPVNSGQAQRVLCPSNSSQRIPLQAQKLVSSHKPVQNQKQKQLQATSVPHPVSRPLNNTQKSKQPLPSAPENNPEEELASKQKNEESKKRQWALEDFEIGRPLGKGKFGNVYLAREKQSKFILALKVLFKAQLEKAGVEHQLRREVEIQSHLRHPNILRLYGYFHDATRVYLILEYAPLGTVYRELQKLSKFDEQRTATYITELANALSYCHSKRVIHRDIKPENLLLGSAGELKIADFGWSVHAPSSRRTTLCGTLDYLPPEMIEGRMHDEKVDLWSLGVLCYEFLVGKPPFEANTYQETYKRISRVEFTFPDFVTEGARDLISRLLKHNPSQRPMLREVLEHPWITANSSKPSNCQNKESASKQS
Experiment [5] addresses Mitogen-activated protein kinase 1 (Homo sapiens) (UniProt P28482). The experiment is described as follows: Inhibition of recombinant full length human GST-tagged ERK2 expressed in Escherichia coli expression system at 0.1 uM using serine/threonine-3 peptide as substrate incubated for 60 mins by Z'-LYTE assay relative to control.
For experiment [6], the target named is Phosphorylase b kinase gamma catalytic chain, skeletal muscle/heart isoform (Homo sapiens) (UniProt Q16816). The experiment is described as follows: Inhibition of recombinant full length human GST-tagged PHKG1 expressed in baculovirus expression system at 0.1 uM using serine/threonine-7 peptide as substrate incubated for 60 mins by Z'-LYTE assay relative to control.

In experiment [7] the target is Serine/threonine-protein kinase Nek9 (Homo sapiens) (UniProt Q8TD19). The experiment is described as follows: Inhibition of recombinant human GST-tagged NEK9 catalytic domain (347 to 732 residues) expressed in baculovirus expression system at 0.1 uM using serine/threonine-7 peptide as substrate incubated for 60 mins by Z'-LYTE assay relative to control.
Experiment [8] concerns the target Mitogen-activated protein kinase 14 (Homo sapiens) (UniProt Q16539). The experiment is described as follows: Inhibition of recombinant full length human GST-tagged p38alpha expressed in Escherichia coli expression system at 0.1 uM using serine/threonine-15 peptide as substrate incubated for 60 mins by Z'-LYTE assay relative to control.
Experiment [9] deals with MAP kinase-activated protein kinase 2 (Homo sapiens) (UniProt P49137). The experiment is described as follows: Inhibition of recombinant full length human His-tagged MAPKAPK2 expressed in Escherichia coli expression system at 0.1 uM using serine/threonine-4 peptide as substrate incubated for 60 mins by Z'-LYTE assay relative to control.
Chain of MAP kinase-activated protein kinase 2 (Homo sapiens) (P49137 whole entry, looked up): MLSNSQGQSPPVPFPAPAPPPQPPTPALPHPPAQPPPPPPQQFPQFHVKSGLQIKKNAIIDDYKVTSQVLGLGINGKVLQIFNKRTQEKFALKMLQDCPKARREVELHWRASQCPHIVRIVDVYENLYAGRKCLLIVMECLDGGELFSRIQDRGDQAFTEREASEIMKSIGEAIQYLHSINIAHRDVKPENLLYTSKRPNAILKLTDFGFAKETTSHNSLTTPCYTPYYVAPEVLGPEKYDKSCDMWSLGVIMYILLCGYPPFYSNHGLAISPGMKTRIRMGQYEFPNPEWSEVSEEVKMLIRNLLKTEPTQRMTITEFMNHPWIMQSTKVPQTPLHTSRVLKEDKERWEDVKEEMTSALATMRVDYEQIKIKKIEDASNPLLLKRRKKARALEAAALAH
For experiment [10], the target named is Serine/threonine-protein kinase DCLK2 (Homo sapiens) (UniProt Q8N568). The experiment is described as follows: Inhibition of recombinant full length human GST-tagged DCAMKL2 expressed in baculovirus expression system at 0.1 uM using serine/threonine-17 peptide as substrate incubated for 60 mins by Z'-LYTE assay relative to control.
Experiment [11] concerns the target Protein kinase C epsilon type (Homo sapiens) (UniProt Q02156). The experiment is described as follows: Inhibition of recombinant full length human GST-tagged PKCepsilon expressed in insect expression system at 0.1 uM using serine/threonine-7 peptide as substrate incubated for 60 mins by Z'-LYTE assay relative to control.
Experiment [12] addresses Casein kinase I isoform gamma-2 (Homo sapiens) (UniProt P78368). The experiment is described as follows: Inhibition of recombinant full length human His-tagged CK1 gamma 2 expressed in baculovirus expression system at 0.1 uM using serine/threonine-5 peptide as substrate incubated for 60 mins by Z'-LYTE assay relative to control.
Experiment [13] addresses Protein kinase C delta type (Homo sapiens) (UniProt Q05655). The experiment is described as follows: Inhibition of recombinant full length human GST-tagged PKCdelta expressed in insect expression system at 0.1 uM using serine/threonine-7 peptide as substrate incubated for 60 mins by Z'-LYTE assay relative to control.
The target in experiment [14] is Proto-oncogene tyrosine-protein kinase Src (Homo sapiens) (UniProt P12931). The experiment is described as follows: Inhibition of recombinant full length human His-tagged SRC expressed in baculovirus expression system at 0.1 uM using tyrosine-2 peptide as substrate incubated for 60 mins by Z'-LYTE assay relative to control.
Chain of Proto-oncogene tyrosine-protein kinase Src (Homo sapiens) (P12931 2-536 limits assumed): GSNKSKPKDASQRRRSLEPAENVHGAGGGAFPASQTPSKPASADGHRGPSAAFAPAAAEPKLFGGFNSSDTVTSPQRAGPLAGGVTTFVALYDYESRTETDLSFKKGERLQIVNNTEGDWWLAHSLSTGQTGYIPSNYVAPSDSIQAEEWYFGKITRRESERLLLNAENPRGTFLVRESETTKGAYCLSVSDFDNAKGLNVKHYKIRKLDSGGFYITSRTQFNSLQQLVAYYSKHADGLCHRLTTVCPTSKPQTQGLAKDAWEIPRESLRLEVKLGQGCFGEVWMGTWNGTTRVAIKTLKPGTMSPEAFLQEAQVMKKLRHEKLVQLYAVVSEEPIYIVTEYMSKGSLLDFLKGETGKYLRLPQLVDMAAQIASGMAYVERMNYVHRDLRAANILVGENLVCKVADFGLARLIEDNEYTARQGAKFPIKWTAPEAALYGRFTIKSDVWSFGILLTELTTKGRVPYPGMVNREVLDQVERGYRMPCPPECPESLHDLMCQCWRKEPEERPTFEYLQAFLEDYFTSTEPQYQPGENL
The target of experiment [15] is Mitogen-activated protein kinase kinase kinase 10 (Homo sapiens) (UniProt Q02779). The experiment is described as follows: Inhibition of tracer 236 binding to recombinant full length human GST-tagged MLK2 expressed in baculovirus expression system at 0.1 uM measured after 60 mins by Lanthascreen assay. (In general: Time-resolved FRET reads energy transfer from a long-lived donor to a nearby acceptor.)

Experiment [16] deals with Mitogen-activated protein kinase 8 (Homo sapiens) (UniProt P45983). The experiment is described as follows: Inhibition of recombinant full length human His-tagged JNK1alpha1 expressed in baculovirus expression system at 0.1 uM using serine/threonine-4 peptide as substrate incubated for 60 mins by Z'-LYTE assay relative to control.
The target in experiment [17] is Mitogen-activated protein kinase 9 (Homo sapiens) (UniProt P45984). The experiment is described as follows: Inhibition of recombinant full length human His-tagged JNK2 expressed in baculovirus expression system at 0.1 uM using serine/threonine-4 peptide as substrate incubated for 60 mins by Z'-LYTE assay relative to control.
Experiment [18] deals with Myotonin-protein kinase (Homo sapiens) (UniProt Q09013). The experiment is described as follows: Inhibition of tracer 236 binding to recombinant full length human GST-tagged DMPK expressed in baculovirus expression system at 0.1 uM measured after 60 mins by Lanthascreen assay relative to control.
Experiment [19] deals with Serine/threonine-protein kinase N1 (Homo sapiens) (UniProt Q16512). The experiment is described as follows: Inhibition of recombinant full length human GST-tagged PRK1 expressed in baculovirus expression system at 0.1 uM using serine/threonine-7 peptide as substrate incubated for 60 mins by Z'-LYTE assay relative to control.
Experiment [20] addresses Ephrin type-A receptor 8 (Homo sapiens) (UniProt P29322). The experiment is described as follows: Inhibition of recombinant human GST-tagged EPHA8 catalytic domain (565 to 1005 residues) expressed in baculovirus expression system at 0.1 uM using tyrosine-2 peptide as substrate incubated for 60 mins by Z'-LYTE assay relative to control.
For experiment [21], the target named is Vascular endothelial growth factor receptor 3 (Homo sapiens) (UniProt P35916). The experiment is described as follows: Inhibition of recombinant human GST-tagged FLT4 catalytic domain (800 to 1297 residues) expressed in baculovirus expression system at 0.1 uM using tyrosine-4 peptide as substrate incubated for 60 mins by Z'-LYTE assay relative to control.
Chain of Vascular endothelial growth factor receptor 3 (Homo sapiens) (P35916 whole entry, the tested form may be a part): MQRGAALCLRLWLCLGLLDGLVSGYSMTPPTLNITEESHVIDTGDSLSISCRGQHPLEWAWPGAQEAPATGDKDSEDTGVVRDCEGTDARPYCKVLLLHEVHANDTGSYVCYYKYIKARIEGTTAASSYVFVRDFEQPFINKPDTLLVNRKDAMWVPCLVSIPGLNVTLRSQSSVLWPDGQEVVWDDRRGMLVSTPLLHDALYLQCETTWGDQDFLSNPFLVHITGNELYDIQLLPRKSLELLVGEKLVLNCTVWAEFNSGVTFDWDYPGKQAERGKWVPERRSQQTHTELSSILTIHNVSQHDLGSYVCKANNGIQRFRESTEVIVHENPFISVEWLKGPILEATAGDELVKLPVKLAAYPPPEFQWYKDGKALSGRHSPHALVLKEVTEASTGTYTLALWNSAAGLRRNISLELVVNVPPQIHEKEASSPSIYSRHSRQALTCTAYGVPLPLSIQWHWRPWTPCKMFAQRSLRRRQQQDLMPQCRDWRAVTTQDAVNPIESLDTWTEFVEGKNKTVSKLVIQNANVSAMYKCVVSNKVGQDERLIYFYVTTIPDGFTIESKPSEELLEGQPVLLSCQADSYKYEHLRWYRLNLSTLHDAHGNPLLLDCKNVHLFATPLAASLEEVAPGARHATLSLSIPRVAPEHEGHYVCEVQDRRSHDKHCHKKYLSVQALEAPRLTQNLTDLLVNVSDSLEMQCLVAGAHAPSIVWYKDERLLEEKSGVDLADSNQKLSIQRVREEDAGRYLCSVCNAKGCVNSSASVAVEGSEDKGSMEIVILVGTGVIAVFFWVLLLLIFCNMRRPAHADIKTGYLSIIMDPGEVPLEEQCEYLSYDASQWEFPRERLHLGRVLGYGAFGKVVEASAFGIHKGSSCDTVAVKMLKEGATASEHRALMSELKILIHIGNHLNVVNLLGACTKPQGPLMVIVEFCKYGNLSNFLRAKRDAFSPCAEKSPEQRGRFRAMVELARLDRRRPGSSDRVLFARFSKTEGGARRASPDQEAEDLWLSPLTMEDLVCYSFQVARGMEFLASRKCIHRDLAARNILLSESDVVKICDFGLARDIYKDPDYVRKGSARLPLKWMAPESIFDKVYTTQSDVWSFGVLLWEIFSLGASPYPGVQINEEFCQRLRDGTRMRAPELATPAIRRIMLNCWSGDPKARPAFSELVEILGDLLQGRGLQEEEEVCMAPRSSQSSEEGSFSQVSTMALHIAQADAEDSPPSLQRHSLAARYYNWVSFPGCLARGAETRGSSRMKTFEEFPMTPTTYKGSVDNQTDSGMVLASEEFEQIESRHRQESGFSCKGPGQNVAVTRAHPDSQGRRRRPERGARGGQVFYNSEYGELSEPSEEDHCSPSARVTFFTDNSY

Experiment [22] addresses cAMP-dependent protein kinase catalytic subunit PRKX (Homo sapiens) (UniProt P51817). The experiment is described as follows: Inhibition of recombinant full length human GST-tagged PRKX expressed in baculovirus expression system at 0.1 uM using serine/threonine-1 peptide as substrate incubated for 60 mins by Z'-LYTE assay relative to control.
For experiment [23], the target named is Dual specificity mitogen-activated protein kinase kinase 1 (Homo sapiens) (UniProt Q02750). The experiment is described as follows: Inhibition of recombinant full length human His-tagged MEK1 expressed in baculovirus expression system at 0.1 uM using serine/threonine-3 peptide as substrate incubated for 60 mins by Z'-LYTE assay relative to control.

Chain of Casein kinase I isoform gamma-2 (Homo sapiens) (P78368 whole entry, looked up, canonical isoform): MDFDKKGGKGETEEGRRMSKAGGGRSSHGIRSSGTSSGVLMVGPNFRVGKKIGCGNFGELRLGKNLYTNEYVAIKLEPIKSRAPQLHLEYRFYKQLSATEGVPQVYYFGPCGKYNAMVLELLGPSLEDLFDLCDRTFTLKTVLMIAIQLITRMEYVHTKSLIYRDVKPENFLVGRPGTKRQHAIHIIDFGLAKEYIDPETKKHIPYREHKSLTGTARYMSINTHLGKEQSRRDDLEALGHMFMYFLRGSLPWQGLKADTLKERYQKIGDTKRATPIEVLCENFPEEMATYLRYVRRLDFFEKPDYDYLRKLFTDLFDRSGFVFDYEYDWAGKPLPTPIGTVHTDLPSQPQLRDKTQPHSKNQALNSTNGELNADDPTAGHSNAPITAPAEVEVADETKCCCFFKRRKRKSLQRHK
Chain of cAMP-dependent protein kinase catalytic subunit PRKX (Homo sapiens) (P51817 whole entry): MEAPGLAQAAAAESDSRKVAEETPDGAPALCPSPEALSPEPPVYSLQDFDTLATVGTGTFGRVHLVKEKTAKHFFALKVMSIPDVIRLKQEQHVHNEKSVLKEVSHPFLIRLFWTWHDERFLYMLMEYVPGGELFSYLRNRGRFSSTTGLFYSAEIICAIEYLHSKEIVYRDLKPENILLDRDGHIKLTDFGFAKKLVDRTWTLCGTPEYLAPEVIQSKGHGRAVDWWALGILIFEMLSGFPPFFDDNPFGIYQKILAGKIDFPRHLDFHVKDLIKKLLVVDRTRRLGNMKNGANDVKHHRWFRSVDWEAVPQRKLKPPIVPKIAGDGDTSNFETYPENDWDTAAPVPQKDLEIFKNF
Chain of Mitogen-activated protein kinase 1 (Homo sapiens) (P28482 whole entry, canonical isoform): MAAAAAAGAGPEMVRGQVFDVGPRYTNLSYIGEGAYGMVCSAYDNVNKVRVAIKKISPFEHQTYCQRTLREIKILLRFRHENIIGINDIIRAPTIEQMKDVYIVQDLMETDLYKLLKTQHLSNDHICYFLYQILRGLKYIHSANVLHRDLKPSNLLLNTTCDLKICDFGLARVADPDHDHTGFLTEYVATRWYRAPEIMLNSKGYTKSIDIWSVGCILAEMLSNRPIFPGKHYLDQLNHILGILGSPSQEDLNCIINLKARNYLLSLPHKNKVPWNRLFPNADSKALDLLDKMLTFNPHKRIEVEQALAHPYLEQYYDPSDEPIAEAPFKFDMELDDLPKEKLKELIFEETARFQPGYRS
Chain of Protein kinase C delta type (Homo sapiens) (Q05655 whole entry, looked up): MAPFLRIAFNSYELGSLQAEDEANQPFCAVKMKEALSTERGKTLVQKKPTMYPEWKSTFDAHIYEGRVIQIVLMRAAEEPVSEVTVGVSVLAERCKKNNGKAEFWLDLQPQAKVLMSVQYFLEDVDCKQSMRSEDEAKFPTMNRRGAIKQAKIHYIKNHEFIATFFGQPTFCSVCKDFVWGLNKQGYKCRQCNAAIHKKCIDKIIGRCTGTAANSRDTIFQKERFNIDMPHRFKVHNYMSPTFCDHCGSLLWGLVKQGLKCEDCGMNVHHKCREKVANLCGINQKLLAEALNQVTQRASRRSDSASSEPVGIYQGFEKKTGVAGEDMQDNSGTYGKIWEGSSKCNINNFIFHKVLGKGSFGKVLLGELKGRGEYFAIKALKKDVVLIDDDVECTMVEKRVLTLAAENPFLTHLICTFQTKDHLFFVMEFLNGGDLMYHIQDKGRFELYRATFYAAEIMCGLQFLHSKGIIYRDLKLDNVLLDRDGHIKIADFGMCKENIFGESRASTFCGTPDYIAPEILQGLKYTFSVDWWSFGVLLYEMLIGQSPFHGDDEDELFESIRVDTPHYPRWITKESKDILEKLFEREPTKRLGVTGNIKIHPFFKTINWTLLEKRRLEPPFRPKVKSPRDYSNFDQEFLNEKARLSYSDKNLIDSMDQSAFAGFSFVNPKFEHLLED
Chain of Mitogen-activated protein kinase 14 (Homo sapiens) (Q16539 whole entry): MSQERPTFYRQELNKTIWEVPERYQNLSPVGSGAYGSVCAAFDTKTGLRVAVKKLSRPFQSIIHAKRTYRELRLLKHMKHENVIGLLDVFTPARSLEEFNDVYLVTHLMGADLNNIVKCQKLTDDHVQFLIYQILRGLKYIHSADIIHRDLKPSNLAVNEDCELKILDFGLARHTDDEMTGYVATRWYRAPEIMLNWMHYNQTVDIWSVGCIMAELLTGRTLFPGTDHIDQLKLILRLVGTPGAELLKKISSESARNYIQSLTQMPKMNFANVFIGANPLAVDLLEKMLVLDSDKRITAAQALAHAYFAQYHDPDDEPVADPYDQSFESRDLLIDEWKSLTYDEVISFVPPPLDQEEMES

On to `CCN1CCN(Cc2ccc(Nc3ncc(F)c(-c4cc(F)c5nc(C)n(C(C)C)c5c4)n3)nc2)CC1` [ABEMACICLIB], for which the inhibition – broadly, the change of the read-out against control, counted positive when it falls – amounted to 13.5% in experiment [1]; 3% in experiment [2]; 2.4% in [3]; 9.5% in [4]; 8% in experiment [5]; 62% in [6]. The inhibition in experiment [7] is 2%; in experiment [8] it was -1%; in experiment [9], 14.5%; in [10] it was 9.5%; in [11], 22.5%; in experiment [12] it was 7%. Also, the inhibition came out at 48.5% in experiment [13]; 7.5% in experiment [14]; 10.6% in [15]; 46.2% in experiment [16]; 25.5% in [17]; 76.9% in [18]. For the same compound, the inhibition in experiment [19] is 7%; in [20], 1%; in experiment [21] it was 4%; in experiment [22], 5%; in experiment [23] it was 4.7%.

Consider `CCN1CC2(C1)CN(c1ccc(Nc3ncc(F)c(-c4cnn5c4[C@H](C)CCCC5)n3)nc1)C2`, for which the inhibition in [1] was found to be 10%; in experiment [2] it was 32.5%; in experiment [3] it was 5%; in [4], 12%; in experiment [5] it was 6%; in experiment [6] it was 64%. The inhibition is -1.5% in [7]; 3% in [8]; 4.5% in experiment [9]; 20.5% in experiment [10]; 14.5% in experiment [11]; 3.5% in experiment [12]. Also, the inhibition in experiment [13] came out at 23.5%; in [14], 1.5%; in experiment [15], 18%; in [16] it was 78%; in experiment [17], 61.5%; in experiment [18] it was 46%. The inhibition in experiment [19] was 8.5%; in experiment [20] it was 3.5%; in experiment [21] it was 19%; in [22], 5.5%; in experiment [23], 20.5%.
